From patent US9888688B2, “Tetrazolinone compounds and applications thereof” (Sumitomo Chemical Company, Limited, priority 2013, dated 2018)

System: barley net blotch fungus (Pyrenophora teres)
Assay: Barley net blotch control test, foliar spray on barley (Test Examples 4, 16, 17, 18)
Type: in vivo
Details: 12.5 ppm foliar spray, barley NISHINOHOSHI, inoculated after 2 days

SMILES	area of lesion spots relative to that on an untreated plant [%]
CCOc1cccc(-n2nnn(C)c2=O)c1COc1ccc(-c2cccc(C)n2)cc1C [Present Compound 53]	≤ 30

System: cabbage moth (Plutella xylostella)
Assay: Cabbage moth larvae mortality test on cabbage (Test Example 31)
Type: in vivo
Details: 120 h, 500 ppm spray on cabbage 20 mL/cup, third instar larvae, 25° C., after 5 days
Description: (§1) In the present Test Example, a water dilution containing a surfactant prepared by adjusting so as to contain a predetermined concentration (500 ppm) of the present compound was used as a test chemical solution.
Cabbage was planted in each of polyethylene cups and grown until the third true leaf or the fourth true leaf was developed. The above test chemical solution was sprayed over the cabbage (Brassicae oleracea) at a rate of 20 mL/cup. After drying the chemical solution, the polyethylene cup having a volume of 400 mL was covered. Ten (10) heads of third instar larvae of cabbage moth (Plutella xylostella) were released in the cup and the cup was covered with a Tetron fabric. The cup was held at 25° C. and, after 5 days, the number of the surviving insects was counted and the mortality of insects was calculated by the following equation.
Mortality (%)=(number of dead insects/number of test insects)×100

SMILES	mortality at 500 ppm [%]
Cc1cccc(-c2ccc(OCc3c(C)cccc3-n3nnn(C)c3=O)c(C)c2)n1 [Present Compound 48]	≥ 90
Cc1ccnc(-c2ccc(OCc3c(C4CC4)cccc3-n3nnn(C)c3=O)c(C)c2)n1 [Present Compound 92]	≥ 90

System: cotton aphid (Aphis gossypii)
Assay: Cotton aphid control test on cucumber (Test Example 32)
Type: in vivo
Details: 144 h, 20 mL sprayed on cucumber, after 6 days
Description: In the present Test Example, a water dilution containing a surfactant prepared by adjusting so as to contain a predetermined concentration (500 ppm) of the present compound was used as a test chemical solution. Thirty (30) heads of cotton aphid (Aphis gossypii) (including adults and larvae) were released on the leaves of cucumber grown in a polyethylene cup until the first true leaf was developed. Next day, 20 mL of the above test chemical solution was sprayed. After 6 days, the number of the surviving insects was counted and the control value was calculated by the following equation. Control value (%)={1−(Cb×Tai)/(Cai×Tb)}×100 wherein symbols in the equation represent the followings: Cb: Number of insects before spraying chemical solution in untreated area; Cai: Number of surviving insects in untreated area; Tb: Number of insects before spraying chemical solution in treated area; and Tai: Number of surviving insects in treated area.

SMILES	pest or weed control at 500 ppm [%]
CCc1cccc(-c2ccc(OCc3ccccc3-n3nnn(C)c3=O)c(C(F)(F)F)c2)n1 [Present Compound 130]	≥ 90
COc1cc(-c2cccc(C)n2)ccc1OCc1c(C)cccc1-n1nnn(C)c1=O [Present Compound 155]	≥ 90
Cc1cccc(-c2ccc(OCc3c(C)cccc3-n3nnn(C)c3=O)c(C#N)c2)n1 [Present Compound 156]	≥ 90
Cc1ccc(-c2ccc(OCc3c(C)cccc3-n3nnn(C)c3=O)c(C)c2)nn1 [Present Compound 234]	≥ 90
C=C(C)c1cccc(-c2ccc(OCc3c(C)cccc3-n3nnn(C)c3=O)c(C)c2)n1 [Present Compound 148]	≥ 90
CCOc1cccc(-n2nnn(C)c2=O)c1COc1ccc(-c2ccccn2)cc1C [Present Compound 8]	≥ 90
COc1ccncc1-c1cc(C)c(OCc2c(C)cccc2-n2nnn(C)c2=O)cc1C [Present Compound 192]	≥ 90
CCOc1cccc(-n2nnn(C)c2=O)c1COc1ccc(-c2cccc(Cl)n2)cc1C [Present Compound 41]	≥ 90
CCc1cccc(-c2ccc(OCc3c(C)cccc3-n3nnn(C)c3=O)c(C(F)(F)F)c2)n1 [Present Compound 131]	≥ 90
Cc1cc(-c2ncc(F)cn2)c(C)cc1OCc1c(C)cccc1-n1nnn(C)c1=O [Present Compound 238]	≥ 90
CCOc1cccc(-n2nnn(C)c2=O)c1COc1ccc(-c2ccc(Cl)cn2)cc1C [Present Compound 29]	≥ 90
Cc1cc(-c2cccc(C(C)C)n2)ccc1OCc1c(C)cccc1-n1nnn(C)c1=O [Present Compound 149]	≥ 90
Cc1cc(-c2ncc(F)cn2)ccc1OCc1c(C)cccc1-n1nnn(C)c1=O [Present Compound 236]	≥ 90
Cc1ccnc(-c2ccc(OCc3ccccc3-n3nnn(C)c3=O)c(C(F)(F)F)c2)n1 [Present Compound 137]	≥ 90
Cc1cc(-c2ccc(F)cn2)c(F)cc1OCc1c(C)cccc1-n1nnn(C)c1=O [Present Compound 195]	≥ 90
Cc1cc(-c2cccc(C#N)n2)ccc1OCc1c(C2CC2)cccc1-n1nnn(C)c1=O [Present Compound 116]	≥ 90
CCc1cccc(-c2ccc(OCc3c(OC)cccc3-n3nnn(C)c3=O)c(C)c2)n1 [Present Compound 45]	≥ 90
CCc1cccc(-n2nnn(C)c2=O)c1COc1ccc(-c2nccc(C)n2)cc1C(F)(F)F [Present Compound 138]	≥ 90
Cc1ccnc(-c2ccc(OCc3c(Cl)cccc3-n3nnn(C)c3=O)c(C(F)(F)F)c2)n1 [Present Compound 134]	≥ 90
Cc1ccnc(-c2ccc(OCc3c(C)cccc3-n3nnn(C)c3=O)c(C)c2)c1 [Present Compound 20]	≥ 90
Cc1cc(-c2ccc(F)cn2)c(C)cc1OCc1c(C2CC2)cccc1-n1nnn(C)c1=O [Present Compound 219]	≥ 90
Cc1cccc(-c2ccc(OCc3c(C)cccc3-n3nnn(C)c3=O)c(C(F)(F)F)c2)n1 [Present Compound 59]	≥ 90
Cc1cccc(-c2ccc(OCc3ccccc3-n3nnn(C)c3=O)c(C(F)(F)F)c2)n1 [Present Compound 127]	≥ 90
Cc1cccc(-n2nnn(C)c2=O)c1COc1cc(Cl)c(-c2ccccn2)cc1Cl [Present Compound 210]	≥ 90

System: wheat leaf blotch fungus (Septoria tritici)
Assay: Wheat leaf blotch control test, spray before inoculation (Test Examples 6, 9, 10, Comparative Test Example)
Type: in vivo
Details: 500 ppm foliar spray, wheat APOGEE, inoculated after 4 days

SMILES	area of lesion spots relative to that on an untreated plant [%]
Cn1nnn(-c2ccccc2COc2ccc(-c3ccccc3)cc2)c1=O [1-methyl-4-[2-(4-phenyl-phenoxymethyl)-phenyl]-1,4-dihydrotetrazol-5-one, reference compound]	≥ 70
Cn1nnn(-c2ccccc2COc2ccc(-c3ccccn3)cc2)c1=O [Present Compound 223]	≤ 30

System: common house mosquito (Culex pipiens pallens)
Assay: Common house mosquito larvae mortality test (Test Example 30)
Type: in vivo
Details: 192 h, 3.5 ppm active ingredient in water, last instar larvae, after 8 days
Description: as §1
The above test chemical solution (0.7 mL) was added to 100 mL of deionized water to adjust the concentration of an active ingredient to 3.5 ppm. Twenty (20) heads of last instar larvae of common house mosquito (Culex pipiens pallens) were released in the solution and the number of dead insects was counted after 8 days.
Mortality was determined by the following equation. Mortality (%)=(number of dead insects/number of test insects)×100

SMILES	mortality at 3.5 ppm [%]
Cc1cc(-c2ncc(Cl)cn2)c(F)cc1OCc1c(C)cccc1-n1nnn(C)c1=O [Present Compound 242]	100
CCc1cccc(-n2nnn(C)c2=O)c1COc1ccc(-c2nccc(C)n2)cc1C [Present Compound 93]	100
Cc1cc(-c2ncc(F)cn2)ccc1OCc1c(C)cccc1-n1nnn(C)c1=O [Present Compound 236]	100
Cc1cc(-c2cccc(C#N)n2)ccc1OCc1c(C2CC2)cccc1-n1nnn(C)c1=O [Present Compound 116]	100
CCc1cccc(-n2nnn(C)c2=O)c1COc1cc(C)c(-c2ccc(F)cn2)cc1C [Present Compound 215]	100
